{"source": "patent US8269000B2", "about": "“Substituted pyrimidine and triazine compounds” (Gruenenthal GmbH, priority 2008, dated 2012)", "data": [{"molecular_target": "T1, rat B1R (Rattus norvegicus, UniProt P97583)", "T1 construct": "expressed in transfected cells; host or cells: CHO K1 cells", "T1 sequence (P97583 1-337)": "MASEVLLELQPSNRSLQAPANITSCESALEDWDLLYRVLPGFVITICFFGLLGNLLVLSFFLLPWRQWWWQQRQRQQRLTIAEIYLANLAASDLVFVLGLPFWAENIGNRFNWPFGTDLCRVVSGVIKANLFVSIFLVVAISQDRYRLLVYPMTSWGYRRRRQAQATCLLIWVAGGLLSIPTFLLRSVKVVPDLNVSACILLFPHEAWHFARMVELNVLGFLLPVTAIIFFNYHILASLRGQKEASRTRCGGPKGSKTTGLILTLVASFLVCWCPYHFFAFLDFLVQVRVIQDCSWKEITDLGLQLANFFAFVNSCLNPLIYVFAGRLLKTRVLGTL", "test": "FLIPR Ca2+ functional study on bradykinin receptor 1 (rB1R CHO K1 cells)", "assay_type": "cell-based", "details": "% inhibition rat B1R at 10 μM", "method_in_brief": "(§1)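 Antagonism was calculated as % of maximal inhibition of the Ca2+ rise triggered by agonist at EC80 (Lys-Des-Arg9-bradykinin for hB1R, Des-Arg9-bradykinin for rB1R), added 10-20 min after test compound (10 μM or serial dilutions for IC50) to Fluo-4-loaded transfected CHO K1 cells on FLIPR. Duplicates or triplicates, ≥2 independent runs.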", "units": {"% inh. (rat B1R) 10 μM": "%"}, "values": [{"smiles": "COc1cc(C)c(S(=O)(=O)N2CCC[C@H]2COc2nccc(N3CCC(CCN4CCCCC4)CC3)n2)c(C)c1", "note": "[G_CC-037]", "% inh. (rat B1R) 10 μM": 102}, {"smiles": "COc1cc(C)c(S(=O)(=O)N2CCC[C@H]2COc2ccnc(N3CCC4(CC3)C(=O)NCN4c3ccccc3)n2)c(C)c1", "note": "[H_CC-024, 8-[4-[[(2S)-1-(4-methoxy-2,6-dimethylphenyl)sulfonyl-2-pyrrlidinyl]methoxy]-2-pyrimidinyl]-4-phenyl-2,4,8-triazaspiro[4.5]decan-1-one]", "% inh. (rat B1R) 10 μM": 97}, {"smiles": "COc1cc(C)c(S(=O)(=O)N2c3ccccc3C[C@H]2COc2ccnc(N3CCC(CCN4CCCC4)CC3)n2)c(C)c1", "note": "[H_CC-017, (2S)-1-(4-methoxy-2,6-dimethylphenyl)sulfonyl-2-[[2-[4-(2-1-pyrrolidinylethyl)-1-pipendinyl]-4-pyrimidinyl]oxymethyl]indoline]", "% inh. (rat B1R) 10 μM": 93}, {"smiles": "COc1cc(C)c(S(=O)(=O)N2CCC[C@@H]2COc2ccnc(N3CCCN(Cc4ccccn4)CC3)n2)c(C)c1", "note": "[H_CC-043, 1-[4-[[(2R)-1-[(4-methoxy-2,6-dimethyl-phenyl)sulfonyl]-pyrrolidin-2-yl]-methoxy]-pyrimidin-2-yl]-4-(pyridin-2-yl-methyl)-[1,4]diazepam]", "% inh. (rat B1R) 10 μM": 80}]}, {"molecular_target": "T1, rat B1R", "test": "FLIPR Ca2+ functional study on bradykinin receptor 1 (rB1R CHO K1 cells)", "assay_type": "cell-based", "details": "CHO-K1, % inhibition rat B1R at 10 μM, read-out: % inh. (rat B1R) 10 μM", "method_in_brief": "as §1", "units": {"inhibition at 10 µM": "%"}, "values": [{"smiles": "COc1cc(C)c(S(=O)(=O)N2CCCCC2COc2nccc(N3CCC(O)(c4ccccn4)CC3)n2)c(C)c1", "note": "(stereo not drawn) [G_CC-082, 1-[2-[[1-[(4-methoxy-2,6-dimethyl-phenyl)sulfonyl]-piperidin-2-yl]-methoxy]-pyrimidin-4-yl]-4-pyridin-2-yl-piperidin-4-ol]", "inhibition at 10 µM": 73}, {"smiles": "COc1cc(C)c(S(=O)(=O)N2CCC[C@H]2COc2ccnc(N3CCC(c4ccccc4)(N(C)C)CC3)n2)c(C)c1", "note": "[H_CC-085, [1-[4-[[(2S)-1-[(4-methoxy-2,6-dimethyl-phenyl)sulfonyl]-pyrrolidin-2-yl]-methoxy]-pyrimidin-2-yl]-4-phenyl-piperidin-4-yl]-dimethyl-amine]", "inhibition at 10 µM": 70}, {"smiles": "COc1cc(C)c(S(=O)(=O)N2CCCCC2COc2ccnc(N3CCC(CCN4CCCC4)CC3)n2)c(C)c1", "note": "(stereo not drawn) [H_CC-002, 4-[[1-(4-methoxy-2,6-dimethylphenyl)sulfonyl-2-piperidinyl]methoxy]-2-[4-(2-1-pyrrolidinylethyl)-1-piperidinyl]pyrimidine]", "inhibition at 10 µM": 77}, {"smiles": "COc1cc(C)c(S(=O)(=O)N2CC(Oc3nccc(N4CCC(CCN5CCCCC5)CC4)n3)C2)c(C)c1", "note": "[G_CC-129, 2-[1-[(4-methoxy-2,6-dimethyl-phenyl)sulfonyl]-azetidin-3-yl]oxy-4-[4-(2-piperidin-1-yl-ethyl)-piperidin-1-yl]-pyrimidine]", "inhibition at 10 µM": 73}, {"smiles": "COc1cc(C)c(S(=O)(=O)N2CCCC(Oc3ccnc(N4CCC(CCN5CCCCC5)CC4)n3)C2)c(C)c1", "note": "(stereo not drawn) [H_CC-041, 4-[[1-(4-methoxy-2,6-dimethylphenyl)sulfonyl-3-piperidinyl]oxy]-2-[4-[2-(1-piperidyl)ethyl]-1-piperidinyl]pyrimidine]", "inhibition at 10 µM": 48}, {"smiles": "CCCCC1(N(C)C)CCN(CCN(C)c2nccc(OC3CN(S(=O)(=O)c4c(C)cc(OC)cc4C)C3)n2)CC1", "note": "[H_CC-071, 2-(4-butyl-4-dimethylamino-piperidin-1-yl)-ethyl-[4-[1-[(4-methoxy-2,6-dimethyl-phenyl)sulfonyl]-azetidin-3-yl]oxy-pyrimidin-2-yl]-methyl-amine]", "inhibition at 10 µM": 55}, {"smiles": "COc1cc(C)c(S(=O)(=O)N2CCCC(Oc3ccnc(N(C)CCCN4CCC(c5ccccc5)(N(C)C)CC4)n3)C2)c(C)c1", "note": "(stereo not drawn) [H_CC-073, 3-(4-dimethylamino-4-phenyl-piperidin-1-yl)-propyl-[4-[1-[(4-methoxy-2,6-dimethyl-phenyl)sulfonyl]-piperidin-3-yl]oxy-pyrimidin-2-yl]-methyl-amine]", "inhibition at 10 µM": 55}, {"smiles": "COc1cc(C)c(S(=O)(=O)N2CCCCC2COc2nccc(N3CCC4(CCN(Cc5ccccc5)C4)C3)n2)c(C)c1", "note": "(stereo not drawn) [G_CC-022, 3-benzyl-7-[2-[[1-(4-methoxy-2,6-dimethylphenyl)sulfonyl-2-piperidinyl]methoxy]-4-pyrimidinyl]-3,7-diazaspiro[4.4]nonane]", "inhibition at 10 µM": 104}, {"smiles": "COc1cc(C)c(S(=O)(=O)N(C)CCOc2ccnc(N3CCC4(CCN(Cc5ccc(F)cc5)C4=O)CC3)n2)c(C)c1", "note": "[H_CC-039, N-[2-[[2-[3-[(4-fluorophenyl)methyl]-4-oxo-3,8-diazaspiro[4.5]decan-8-yl]-4-pyrimidinyl]oxy]ethyl]-4-methoxy-N,2,6-trimethylbenzenesulfonamide]", "inhibition at 10 µM": 50}, {"smiles": "COc1cc(C)c(S(=O)(=O)N2CCCCC2COc2nccc(N3CCN(C)CC3)n2)c(C)c1", "note": "(stereo not drawn) [G_CC-009, 2-[[1-(4-methoxy-2,6-dimethylphenyl)sulfonyl-2-piperidinyl]methoxy]-4-(4-methyl-1-piperazinyl)pyrimidine]", "inhibition at 10 µM": 63}, {"smiles": "COc1cc(C)c(S(=O)(=O)N2CCC[C@H]2COc2nccc(N3CCC4(CC3)C(=O)N(C)CC4c3ccc(F)cc3)n2)c(C)c1", "note": "(stereo partly drawn) [G_CC-050, 1-(4-fluorophenyl)-8-[2-[[(2S)-1-(4-methoxy-2,6-dimethylphenyl)sulfonyl-2-pyrrolidinyl]methoxy]-4-pyrimidinyl]-3-methyl-3,8-diazaspiro[4.5]decan-4-one]", "inhibition at 10 µM": 73}, {"smiles": "COc1cc(C)c(S(=O)(=O)N2CCC[C@H]2COc2ccnc(N3CCC(c4cccs4)(N(C)C)CC3)n2)c(C)c1", "note": "[H_CC-086, [1-[4-[[(2S)-1-[(4-methoxy-2,6-dimethyl-phenyl)sulfonyl]-pyrrolidin-2-yl]-methoxy]-pyrimidin-2-yl]-4-thiophen-2-yl-piperidin-4-yl]-dimethyl-amine]", "inhibition at 10 µM": 66}, {"smiles": "COc1cc(C)c(S(=O)(=O)N2CCCCC2COc2ccnc(N3CCC(CNC(=O)c4ccncc4)(N4CCN(C)CC4)CC3)n2)c(C)c1", "note": "(stereo not drawn) [H_CC-031, N-[[1-[4-[[1-(4-methoxy-2,6-dimethylphenyl)sulfonyl-2-piperidinyl]methoxy]-2-pyrimidinyl]-4-(4-methyl-1-piperazinyl)-4-piperidinyl]methyl]-4-pyridinecarboxamide]", "inhibition at 10 µM": 56}, {"smiles": "COc1cc(C)c(S(=O)(=O)N2CCCCC2COc2nccc(N3CCC(c4nc(-c5ccncc5)no4)CC3)n2)c(C)c1", "note": "(stereo not drawn) [G_CC-103, 5-[1-[2-[[1-[(4-methoxy-2,6-dimethyl-phenyl)sulfonyl]-piperidin-2-yl]-methoxy]-pyrimidin-4-yl]-piperidin-4-yl]-3-pyridin-4-yl-[1,2,4]oxadiazole]", "inhibition at 10 µM": 93}, {"smiles": "COc1cc(C)c(S(=O)(=O)N2CCC[C@H]2COc2ccnc(N3CCC(CCN4CCCC4)CC3)n2)c(C)c1", "note": "[H_CC-009, 4-[[(2S)-1-(4-methoxy-2,6-dimethylphenyl)sulfonyl-2-pyrrolidinyl]methoxy]-2-[4-(2-1-pyrrolidinylethyl)-1-piperidinyl]pyrimidine]", "inhibition at 10 µM": 85}, {"smiles": "COc1cc(C)c(S(=O)(=O)N2CCCC(Oc3nccc(N4CCC(c5ccccc5)(N5CCCC5)CC4)n3)C2)c(C)c1", "note": "(stereo not drawn) [G_CC-114, 2-[1-[(4-methoxy-2,6-dimethyl-phenyl)sulfonyl]-piperidin-3-yl]oxy-4-(4-phenyl-4-pyrrolidin-1-yl-piperidin-1-yl)-pyrimidine]", "inhibition at 10 µM": 54}, {"smiles": "COc1cc(C)c(S(=O)(=O)N2CCCCC2COc2nccc(N3CCCC3Cc3ccccn3)n2)c(C)c1", "note": "(stereo not drawn) [G_CC-081, 2-[[1-[(4-methoxy-2,6-dimethyl-phenyl)sulfonyl]-piperidin-2-yl]-methoxy]-4-[2-(pyridin-2-yl-methyl)-pyrrolidin-1-yl]-pyrimidine]", "inhibition at 10 µM": 88}]}]}
